{
  "source": "paper PMC11536634",
  "about": "“Discovering a novel dual specificity tyrosine-phosphorylation-regulated kinase 1A (DYRK1A) inhibitor and its impact on tau phosphorylation and amyloid-β formation” (Journal of Enzyme Inhibition and Medicinal Chemistry, 2024)",
  "type_in_all_cases": "biochemical",
  "key": {"[1]": {"biological_target": "cyclin-dependent kinase 2 (CDK2) (Homo sapiens, UniProt P24941)", "assay": "kinase panel ([…] human kinases), […] inhibition at […]"}, "[2]": {"biological_target": "fibroblast growth factor receptor 1 (FGFR1) (Homo sapiens, UniProt P11362)", "sequence (P11362 22-822)": "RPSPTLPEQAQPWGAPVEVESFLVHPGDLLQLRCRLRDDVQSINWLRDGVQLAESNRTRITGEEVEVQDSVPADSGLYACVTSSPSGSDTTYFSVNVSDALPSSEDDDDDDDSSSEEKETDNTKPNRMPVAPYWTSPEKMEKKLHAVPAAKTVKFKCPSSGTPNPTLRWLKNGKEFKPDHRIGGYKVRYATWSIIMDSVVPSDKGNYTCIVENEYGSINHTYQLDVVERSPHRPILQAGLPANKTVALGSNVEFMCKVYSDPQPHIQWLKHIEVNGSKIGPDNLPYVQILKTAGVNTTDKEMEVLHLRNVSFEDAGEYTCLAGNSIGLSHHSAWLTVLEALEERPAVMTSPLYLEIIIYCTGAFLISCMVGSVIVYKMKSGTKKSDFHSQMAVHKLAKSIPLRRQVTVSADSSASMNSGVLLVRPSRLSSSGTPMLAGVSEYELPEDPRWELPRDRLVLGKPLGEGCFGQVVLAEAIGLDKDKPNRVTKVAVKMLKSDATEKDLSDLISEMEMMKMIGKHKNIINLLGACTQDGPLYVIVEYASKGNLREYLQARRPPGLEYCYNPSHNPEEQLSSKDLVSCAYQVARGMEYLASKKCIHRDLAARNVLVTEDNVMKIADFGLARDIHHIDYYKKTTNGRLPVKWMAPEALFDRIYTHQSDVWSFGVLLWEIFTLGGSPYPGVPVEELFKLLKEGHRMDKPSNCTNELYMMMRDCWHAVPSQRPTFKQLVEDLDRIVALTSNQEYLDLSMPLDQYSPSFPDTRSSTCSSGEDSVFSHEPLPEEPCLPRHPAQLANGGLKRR", "assay": "kinase panel ([…] human kinases), […] inhibition at […]"}, "DYRK1A": {"biological_target": "DYRK1A (Homo sapiens, UniProt Q13627)", "assay": "cell-free Z'-LYTE FRET kinase assay, dose-response; ATP competition"}, "CDC-like kinase 2 (CLK2)": {"biological_target": "CDC-like kinase 2 (CLK2) (Homo sapiens, UniProt P49760)", "sequence (P49760 whole entry)": "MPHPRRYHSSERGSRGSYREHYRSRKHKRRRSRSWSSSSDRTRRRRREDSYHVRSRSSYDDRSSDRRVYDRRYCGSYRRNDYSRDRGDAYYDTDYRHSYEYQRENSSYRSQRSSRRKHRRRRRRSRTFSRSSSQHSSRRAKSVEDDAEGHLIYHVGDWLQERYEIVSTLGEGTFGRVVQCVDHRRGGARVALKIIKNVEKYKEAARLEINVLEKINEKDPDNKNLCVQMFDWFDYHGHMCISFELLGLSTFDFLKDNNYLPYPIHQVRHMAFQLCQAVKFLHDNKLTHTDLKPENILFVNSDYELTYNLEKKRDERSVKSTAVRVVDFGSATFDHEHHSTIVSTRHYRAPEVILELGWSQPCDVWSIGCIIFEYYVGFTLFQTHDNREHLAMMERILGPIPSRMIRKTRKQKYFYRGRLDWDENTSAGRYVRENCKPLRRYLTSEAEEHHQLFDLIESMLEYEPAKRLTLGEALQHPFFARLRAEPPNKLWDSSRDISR", "assay": "kinase panel ([…] human kinases), […] inhibition at […]"}},
  "data": [
    {"smiles": "O=C1CC(c2c[nH]c3nccnc23)NN1", "note": "(stereo not shown) [compound 217908, NSC217908]", "values": [
      {"measurement": "% inhibition at 3 μM", "setting": "[1]", "result": 54},
      {"measurement": "% inhibition at 3 μM", "setting": "[2]", "result": 69},
      {"measurement": "IC50", "setting": "DYRK1A", "result": 0.949, "unit": "µM"},
      {"measurement": "% inhibition at 3 μM", "setting": "CDC-like kinase 2 (CLK2)", "result": 89}
    ]}
  ]
}
